According to US5391540A, “Substituted pyridine compounds” (Rohm and Haas Company, priority 1993, dated 1995):

Experiments:
Format in all cases: in vivo
[1] = tested on: Annual Bluegrass; assay: Pre-emergent herbicidal activity (Table A); conditions: pre-emergence, Anbg, 11.2 kg/ha, 10-14 days, read-out: herbicidal rating (% inhibition)
Summary of the method: (§1)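 Seeds were sown on compacted topsoil and covered with soil into which test compound (in acetone or water carrier) had been mixed at 11.2 kg/ha. Pans were kept watered on a greenhouse bench, and percent inhibition was scored as a rating about 10-14 days (usually 11) after treatment.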

[2] = tested on: Indian Mustard; assay: Pre-emergent herbicidal activity (Table A); conditions: Brassica juncea, pre-emergence, Inmu, 11.2 kg/ha, 10-14 days, read-out: herbicidal rating (% inhibition)
Summary of the method: as §1

[3] = tested on: Seedling Johnsongrass; assay: Pre-emergent herbicidal activity (Table A); conditions: Sorghum halepense, pre-emergence, Sejg, 11.2 kg/ha, 10-14 days, read-out: herbicidal rating (% inhibition)
Summary of the method: as §1

[4] = tested on: Wild Buckwheat; assay: Pre-emergent herbicidal activity (Table A); conditions: Fallopia convolvulus, pre-emergence, Wibw, 11.2 kg/ha, 10-14 days, read-out: herbicidal rating (% inhibition)
Summary of the method: as §1

[5] = tested on: Grso; assay: plant injury after spraying emerged plants (Table D); parameters: scale not given here
Summary of the method: (§2)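 Seeds or vegetative propagules of annual and perennial species were pressed into steam-sterilized silt loam, covered with 1.27 cm of topsoil/peat-moss/vermiculite mix, and grown on greenhouse benches with subirrigation. Injury was scored on emerged plants after spraying.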

[6] = tested on: Hese; assay: as above; parameters: scale not given here
Summary of the method: as §2

[7] = tested on: Mogl; assay: as above; parameters: scale not given here
Summary of the method: as §2

[8] = tested on: Vele; assay: as above; parameters: scale not given here
Summary of the method: as §2

[9] = tested on: Wibw; assay: as above; parameters: scale not given here
Summary of the method: as §2

[10] = tested on: Cotz; assay: as above; parameters: scale not given here
Excerpt: (§3) Topsoil (silt loam) is sieved through a screen having 1.27 cm openings. In some of the tests the soil was mixed with fertilizer (1225 g/cu. m of 12/5/9 containing isobutylidene diurea), while in other tests the fertilizer was omitted. This mixture is steam sterilized and then placed in aluminum pans 6.985 cm deep having ten holes in the bottom each 0.635 cm in diameter. The soil mixture is compacted to a depth of 1.27 cm. from the top of the pan. A predetermined number of seeds of each of several dicotyledonous and monocotyledonous annual plant species and/or vegetative propagules for the perennial plant species are placed on the soil and pressed into the soil surface. The seeds and/or vegetative propagules are covered with 1.27 cm of a mixture of 50% topsoil and 50% of a mixture of Canadian sphagnum peat moss, vermiculite and a wetting agent. The pans are then placed on a capillary mat on a greenhouse bench and subirrigated as needed. After the plants reach the desired stage (9 to 14 days, 1 to 3 true leaf stage), each pan (except the control pans) is removed to a spraying chamber and sprayed by means of an atomizer, operating at a spray pressure of 170.3 kPa ([…]) at the application rates noted in Table D. In the spray solution is an amount of an emulsifying agent mixture (35% butylamine salt of dodecylbenzenesulfonic acid and 65% tall oil condensed with ethylene oxide in the ratio of 11 mols of ethylene oxide/mol of tall oil) to give a spray solution or suspension. The spray solution or suspension contains a sufficient amount of the candidate chemical in order to give application rates of the active ingredient corresponding to those shown in Table D below while applying a total amount of solution or suspension equivalent to 1870 L/Ha (200 gallons/acre). The pans are returned to the greenhouse and watered as before and the injury to the plants as compared to the control pans is observed at approximately 10-14 days (usually 11 days).
(§4) In the following Table D the legends used to identify the plant species are the same as those used in the preceding Table B.

[11] = tested on: Jiwe; assay: as above; parameters: scale not given here
Excerpt: as §3, §4

[12] = tested on: Rape; assay: as above; parameters: scale not given here
Excerpt: as §3, §4

| SMILES | inhibition at 11200 g/ha [1] | inhibition at 11200 g/ha [2] | inhibition at 11200 g/ha [3] | inhibition at 11200 g/ha [4] | plant injury rating, Grso ([5]; 0.0701 kg/ha) | plant injury rating, Grso ([5]; 0.2803 kg/ha) | plant injury rating, Grso ([5]; 5.6050 kg/ha) | plant injury rating, Hese ([6]; 0.0701 kg/ha) | plant injury rating, Hese ([6]; 0.2803 kg/ha) | plant injury rating, Hese ([6]; 5.6050 kg/ha) | plant injury rating, Mogl ([7]; 0.0701 kg/ha) | plant injury rating, Mogl ([7]; 0.2803 kg/ha) | plant injury rating, Mogl ([7]; 5.6050 kg/ha) | plant injury rating, Vele ([8]; 0.0701 kg/ha) | plant injury rating, Vele ([8]; 0.2803 kg/ha) | plant injury rating, Vele ([8]; 5.6050 kg/ha) | plant injury rating, Wibw ([9]; 0.0701 kg/ha) | plant injury rating, Wibw ([9]; 0.2803 kg/ha) | plant injury rating, Wibw ([9]; 5.6050 kg/ha) | plant injury rating, Cotz ([10]; 0.0701 kg/ha) | further results |
| --- | --- | --- | --- | --- | --- | --- | --- | --- | --- | --- | --- | --- | --- | --- | --- | --- | --- | --- | --- | --- | --- |
| COC(=O)c1c(OC)nc(C(F)(F)F)c(-c2nnc(C)o2)c1CC(C)C [Compound 103, 3-pyridinecarboxylic acid, 2-methoxy-5-(5-methy1-1,3,4-oxadiazo1-2-yl)-4-(2-methylpropyl)-6-(trifluoromethyl)-, methyl ester] | 75 to 100% | 75 to 100% | 75 to 100% | 75 to 100% | 0 | 0 | 2 | 0 | 0 | 3 | 0 | 1 | 2 | 0 | 0 | 2 | 0 | 0 | 2 | 0 | plant injury rating, Grso ([5]; 1.1219 kg/ha): 0; plant injury rating, Hese ([6]; 1.1219 kg/ha): 1; plant injury rating, Mogl ([7]; 1.1219 kg/ha): 1; plant injury rating, Vele ([8]; 1.1219 kg/ha): 0; plant injury rating, Wibw ([9]; 1.1219 kg/ha): 1; plant injury rating, Cotz ([10]; 0.2803 kg/ha): 0; plant injury rating, Cotz ([10]; 1.1219 kg/ha): 0; plant injury rating, Cotz ([10]; 5.6050 kg/ha): 0; plant injury rating, Jiwe ([11]; 0.0701 kg/ha): 0; plant injury rating, Jiwe ([11]; 0.2803 kg/ha): 0; plant injury rating, Jiwe ([11]; 1.1219 kg/ha): 2; plant injury rating, Jiwe ([11]; 5.6050 kg/ha): 2; plant injury rating, Rape ([12]; 0.0701 kg/ha): 0; plant injury rating, Rape ([12]; 0.2803 kg/ha): 0; plant injury rating, Rape ([12]; 1.1219 kg/ha): 1; plant injury rating, Rape ([12]; 5.6050 kg/ha): 3 |
| COC(=O)c1c(OC)nc(C(F)(F)F)c(C(=O)NCCCBr)c1CC(C)C [Compound 97, 3-pyridinecarboxylic acid, 5-[[(3-bromopropyl)amino)carbonyl]-2-methoxy-4-(2-methylpropyl)-6-(trifluoromethyl)-, methyl ester] | 75 to 100% | 75 to 100% | 75 to 100% | 50 to 74% | 0 | 0 | 0 | 0 | 0 | 0 | 0 | 0 | 0 | 0 | 0 | 0 | 0 | 0 | 0 | 0 | plant injury rating, Grso ([5]; 1.1210 kg/ha): 0; plant injury rating, Hese ([6]; 1.1210 kg/ha): 0; plant injury rating, Mogl ([7]; 1.1210 kg/ha): 0; plant injury rating, Vele ([8]; 1.1210 kg/ha): 0; plant injury rating, Wibw ([9]; 1.1210 kg/ha): 0; plant injury rating, Cotz ([10]; 0.2803 kg/ha): 0; plant injury rating, Cotz ([10]; 1.1210 kg/ha): 0; plant injury rating, Cotz ([10]; 5.6050 kg/ha): 0; plant injury rating, Jiwe ([11]; 0.0701 kg/ha): 0; plant injury rating, Jiwe ([11]; 0.2803 kg/ha): 0; plant injury rating, Jiwe ([11]; 1.1210 kg/ha): 0; plant injury rating, Jiwe ([11]; 5.6050 kg/ha): 1; plant injury rating, Rape ([12]; 0.0701 kg/ha): 0; plant injury rating, Rape ([12]; 0.2803 kg/ha): 0; plant injury rating, Rape ([12]; 1.1210 kg/ha): 0; plant injury rating, Rape ([12]; 5.6050 kg/ha): 0 |
